In US11082386B2, “2′-fluoro-6′-methylene carbocyclic nucleosides and methods of treating viral infections” (UNIVERSITY OF GEORGIA RESEARCH FOUNDATION, INC., priority 2009, dated 2021):
pEC50, pIC50: −log10 of the molar value. “Also recorded” adds a separate entry of the source. Read-outs that look alike come from different tables or passages of the source.

Legend:
[1] = tested on: HBV double mutant rtL180M/rtM204V; assay: intracellular HBV DNA replication assay, double mutant; assay type: cell-based, Hepatitis B virus
Method: (§1) In view of the significance of lamivudine- and adefovir-resistant mutations in the clinical application of anti-HBV treatment, the synthesized nucleoside 15/18 was tested against HBV WT as well as lamivudine- and adefovir-resistant mutants.

[2] = tested on: lamivudine-resistant mutants including rtM204V/I±rtL180M; assay: activity against lamivudine-resistant mutants relative to wild type; assay type: cell-based, Hepatitis B virus
Method: as §1

[3] = tested on: HBV genotype C entecavir resistant clone (L180M+M204V+S202G); assay: anti-HBV activity against entecavir resistant clone in Huh7 cells; assay type: cell-based, Hepatitis B virus; settings: for pEC50: Hepatitis B virus, Huh-7; for antiviral potency against the entecavir mutant / pIC50: Huh7 cells; for pIC50: HBV genotype C entecavir resistant clone
Source text: (§2) A mono-phosphate prodrug can be useful not only to bypass the rate limiting initial phosphorylation step by the nucleoside kinase, thereby to increase the antiviral potency, but also it may potentially target the liver. Therefore, a phosphoramidite, compound 15P/18P was also synthesized.

HBV mutant rtM204I = assay: intracellular HBV DNA replication assay, rtM204I; assay type: cell-based; settings: Hepatitis B virus
Method: as §1

HBV mutant rtL180M = assay: intracellular HBV DNA replication assay, rtL180M; assay type: cell-based, Hepatitis B virus; settings: for pEC50 / EC90: Hepatitis B virus
Method: as §1

wild-type HBV [4] = assay: intracellular HBV DNA replication assay, wild type; assay type: cell-based, Hepatitis B virus
Method: as §1

HBV mutant rtM204V = assay: intracellular HBV DNA replication assay, rtM204V; assay type: cell-based; settings: Hepatitis B virus
Method: as §1

[5] = target: T1, adenosine deaminase from calf thymus (Bos taurus, UniProt P56658); assay: deamination study with adenosine deaminase; assay type: in vitro ADME
T1 construct: adenosine deaminase from calf thymus; from tissue; host or cells: calf thymus
T1 sequence (P56658 1-363): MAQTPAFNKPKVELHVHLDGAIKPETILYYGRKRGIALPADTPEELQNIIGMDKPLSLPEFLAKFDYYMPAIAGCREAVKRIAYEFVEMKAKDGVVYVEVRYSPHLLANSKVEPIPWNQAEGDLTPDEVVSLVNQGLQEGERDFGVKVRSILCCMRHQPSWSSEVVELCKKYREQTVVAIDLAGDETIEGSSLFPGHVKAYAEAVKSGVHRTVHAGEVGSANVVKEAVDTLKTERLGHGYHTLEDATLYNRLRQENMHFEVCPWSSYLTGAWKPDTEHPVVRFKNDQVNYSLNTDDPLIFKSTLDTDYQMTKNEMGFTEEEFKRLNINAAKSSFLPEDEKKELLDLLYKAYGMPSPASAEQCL

[6] = tested on: HBV adefovir mutant rtN236T; assay: intracellular HBV DNA replication assay, adefovir mutant; assay type: cell-based, Hepatitis B virus
Method: as §1

HepG2 cells = assay: mitochondrial toxicity by lactic dehydrogenase release; assay type: cell-based; settings: human
WT HBV = assay: anti-HBV activity against wild type in Huh7 cells (Table 2); assay type: cell-based, Hepatitis B virus
Source text: as §2

wild-type HBV [7] = assay: in vivo study in chimeric mice, wild-type HBV
Method: (§3) The FMCA monophosphate prodrug compound (15P/18P) was also tested in chimeric mice for activity.

[8] = cytotoxicity / cellular toxicity (CC50); settings: Table 2
Method: Drug susceptibility assays were performed as previously described. Cytotoxicity assays in PBM, CEM and Vero cells were conducted as previously described. […] These compounds were tested in a standard HBV assay in the laboratory of Dr. Brent Korba.

[9] = tested on: entecavir resistant HBV mutant (L180M+M204V+S202G); assay: in vivo study in chimeric mice, entecavir resistant HBV mutant; settings: for viral load down / activity: mice, entecavir resistant HBV mutant (L180M+M204V+S202G); for antiviral activity: preliminary, chimeric mice infected with lamivudine-adeforvir-entecavir triple mutant
Method: as §3

HBV = assay: standard HBV assay (HBV Assay Results table); assay type: cell-based, Hepatitis B virus
Method: Drug susceptibility assays were performed as previously described. […]

[10] = tested on: HBV rtA181T and rtN236T mutations; settings: cited from earlier work
[11] = tested on: lamivudine-resistant mutants including rtM204V/I±rtL180M; settings: literature reference 50; cited from earlier work
[12] = rtN236T, compared with adefovir

Compound: C=C1[C@@H](n2cnc3c(N)ncnc32)[C@@H](F)[C@H](O)[C@H]1CO [Compound 15/18, (+)-(1R,2R,3R,5R)-3-(6-amino-9H-9-purinyl)-2-fluoro-5-(hydroxymethyl)-4-methylenecyclopentan-1-ol]
- pEC50 ([1]; Hepatitis B virus): 5.66
- EC90 ([1]; Hepatitis B virus): 5.5 µM
- cross-resistance to tested lamivudine-resistant mutants [2]: not cross-resistant
- fold increase against lamivudine-resistant mutants ([2]; rtM204V/I±rtL180M versus wild type): 1.0-1.2 fold
- pEC50 [3]: 6.17
- antiviral potency against the entecavir mutant [3]: still maintain the antiviral potency
- pEC50 (HBV mutant rtM204I): 6.00
- pEC50 (HBV mutant rtL180M): 5.68
- EC90 (HBV mutant rtL180M): 5.1 µM
- fold increased antiviral activity in EC90 versus lamivudine (HBV mutant rtL180M; rtL180M): 4.3 fold
- EC90 (wild-type HBV [4]; Hepatitis B virus): 4.5 µM
- pEC50 (wild-type HBV [4]; Hepatitis B virus, HBV-WT, inhibition of 50% of HBV DNA): 5.82
- fold more potent than adefovir in EC90 (wild-type HBV [4]; wild-type HBV): 1.5 fold
- fold less potent than lamivudine (wild-type HBV [4]; wild-type HBV, EC50): 7 fold
- pEC50 (HBV mutant rtM204V): 5.74
- stability against adenosine deaminase [5]: completely stable
- pEC50 ([6]; Hepatitis B virus): 5.77
- EC90 ([6]; Hepatitis B virus): 4.6 µM
- fold enhanced EC50 value [6, 12]: 4.5 fold
- fold more favorable EC90 value [6, 12]: 7.8 fold
- mitochondrial toxicity (lactic dehydrogenase release) (HepG2 cells): did not exhibit any significant toxicity up to 100 μM

Compound: C=C1C(COP(=O)(N[C@@H](C)C(=O)OC)Oc2ccccc2)C(O)C(F)C1n1cnc2c(N)ncnc21 (stereo partly shown) [Compound 15P/18P]
- fold enhancement of anti-HBV potency in EC50 versus parent 15/18 (WT HBV): 7 fold
- fold enhancement of anti-HBV potency in EC90 versus parent 15/18 (WT HBV): 13 fold
- viral load down (wild-type HBV [7]): 2 log
- pIC50 [3]: 7.30
- antiviral potency against the entecavir mutant [3]: still maintain the antiviral potency
- cellular toxicity in comparison to parent 15/18 [8]: without significant increase of cellular toxicity
- viral load down / activity [9]: 1 log
- antiviral activity [9]: exhibited antiviral activity
- times more active than the compound where R1 and R1a are H (HBV; prodrug versus parent 15/18): more than 10 times

Compound: Nc1ncnc2c1ncn2CCOCP(=O)(O)O [adefovir, reference compound]
- pEC50 ([1]; double mutant rtL180M/rtM204V, read-out: EC50): 5.66
- EC90 ([1]; double mutant rtL180M/rtM204V, read-out: EC90): 8.5 µM
- increase in median effective concentration [10]: two-fold to nine-fold
- EC90 (wild-type HBV [4]; HBV-WT, inhibition of 90% of HBV DNA, read-out: EC90): 7.1 µM

Compound: C=C1[C@H](CO)[C@@H](O)C[C@@H]1n1cnc2c(=O)[nH]c(N)nc21 [entecavir]
- pEC50 [3]: 5.92
- viral load down / activity ([9]; listed as ETV): inactive; also recorded: not active
- antiviral activity [9]: did not
- fold loss of activity against lamivudine-resistant mutants [11]: 8 fold

Compound: Nc1ccn([C@@H]2CS[C@H](CO)O2)c(=O)n1 [lamivudine, reference compound]
- pEC50 (HBV mutant rtL180M): 5.82
- EC90 (HBV mutant rtL180M): 22 µM
- pEC50 (HBV; Hepatitis B virus, read-out: Control: 3TC EC50): 2.62
- mitochondrial toxicity (lactic dehydrogenase release) (HepG2 cells): did not exhibit any significant toxicity up to 100 μM

Compound: (+)-(1R,2R,3R,5R)-3-(6-amino-9H-9-purinyl)-2-fluoro-5-(hydroxymethyl)-4-methylenecyclopentan-1-ol [Compound 15/18]
- pIC50 [3]: 7.27
